Results reported in ChEMBL document CHEMBL1153642, “Induction of apoptosis in HuH-7 cancer cells by monoterpene and beta-carboline indole alkaloids isolated from the leaves of Tabernaemontana elegans” (2009).
Activity calls are given as the source filed them. The calls are words filed in the database; no cut-off is given here.

Legend:
Huh-7 [1] = test: Induction of apoptosis in human HuH7 cells assessed as cell death after 24 hrs by trypan blue dye exclusion assay; format: functional, cell-based
Huh-7 [2] = test: Induction of apoptosis in human HuH7 cells assessed as change in nuclear morphology after 72 hrs using Hoechst staining; format: functional
Huh-7 [3] = test: Induction of apoptosis in human HuH7 cells assessed as change in nuclear morphology after 48 hrs using Hoechst staining; format: functional
Huh-7 [4] = test: Induction of apoptosis in human HuH7 cells assessed as change in nuclear morphology after 24 hrs using Hoechst staining; format: functional
Huh-7 [5] = test: Induction of necrosis in human HuH7 cells; format: functional, cell-based
Huh-7 [6] = test: Induction of apoptosis in human HuH7 cells assessed as increase in caspase-3 activity after 12 hrs; format: functional, cell-based

| Compound | Activity (Huh-7 [1]) | Activity (Huh-7 [2]) [%] | Activity (Huh-7 [3]) [%] | Activity (Huh-7 [4]) [%] | inhibition (Huh-7 [5]) | Activity (Huh-7 [6]) |
| --- | --- | --- | --- | --- | --- | --- |
| Cc1cc2c3ccccc3n3c2c(n1)CCNC3C (configuration not stated) | Active | – | – | – | – | – |
| Cc1cc2c([nH]c3ccccc32)c2[n+]1C(C)NCC2 (configuration not stated) | Active | – | – | – | – | – |
| C/C=C1/CN(C)[C@H]2Cc3c([nH]c4ccccc34)C(=O)C[C@H]1[C@@H]2C(=O)OC [VOBASINE] | – | <25 | <25 | 40 | inactive | Active |
| CC[C@@H]1CN(C)[C@H]2Cc3c([nH]c4ccccc34)C(=O)C[C@@H]1[C@H]2C(=O)OC [TABERNAEMONTANINE] | – | <25 | <25 | 40 | inactive | Active |
